Reference: patent US11572590B2, “Methods for evaluating tumor cell spheroids using 3D microfluidic cell culture device” (Dana-Farber Cancer Institute, Inc., priority 2017, dated 2023)
Read-outs that look alike come from different tables or passages of the source.

Key:
Assay in all cases: SelectScreen Kinase Profiling, single point inhibition and IC50 for off-target kinases
Format in all cases: biochemical
off-target kinases [1] = target: off-target kinases (Homo sapiens, UniProt P53350); settings: PLK1, ZLYTE, ATP Km app
off-target kinases [2] = target: off-target kinases (Homo sapiens, UniProt P36507); settings: MAP2K2 (MEK2)
off-target kinases [3] = target: off-target kinases (Homo sapiens, UniProt P07949); settings: RET, ATP Km app, ZLYTE
off-target kinases [4] = target: T1, off-target kinases (Homo sapiens, UniProt Q96BR1); settings: SGKL (SGK3), ZLYTE, ATP Km app
T1 sequence (Q96BR1 1-496): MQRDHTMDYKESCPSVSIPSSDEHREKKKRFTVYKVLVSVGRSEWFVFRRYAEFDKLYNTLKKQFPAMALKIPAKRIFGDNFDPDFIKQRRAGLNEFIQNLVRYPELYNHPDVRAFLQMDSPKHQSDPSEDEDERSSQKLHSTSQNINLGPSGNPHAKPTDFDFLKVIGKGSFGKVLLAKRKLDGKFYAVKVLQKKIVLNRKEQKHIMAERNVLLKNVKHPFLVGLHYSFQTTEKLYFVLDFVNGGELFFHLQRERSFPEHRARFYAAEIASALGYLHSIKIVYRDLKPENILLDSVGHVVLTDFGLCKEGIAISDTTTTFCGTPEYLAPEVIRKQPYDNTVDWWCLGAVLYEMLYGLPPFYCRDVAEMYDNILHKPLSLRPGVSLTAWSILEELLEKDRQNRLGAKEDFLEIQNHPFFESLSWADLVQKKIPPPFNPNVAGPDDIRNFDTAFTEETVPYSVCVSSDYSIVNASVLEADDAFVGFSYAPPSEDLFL

off-target kinases [5] = target: off-target kinases (Homo sapiens, UniProt P00533, L861Q); settings: EGFR (ErbB1) L861Q (mutant), ZLYTE, ATP Km app
off-target kinases [6] = target: off-target kinases (Homo sapiens, UniProt Q9UKE5); settings: TNIK, LanthaScreen Binding
off-target kinases [7] = target: off-target kinases (Homo sapiens, UniProt P22607, K650M); settings: FGFR3 K650M, mutant y, LanthaScreen Binding
off-target kinases [8] = target: off-target kinases (Homo sapiens, UniProt P34947); settings: GRK5, ZLYTE, ATP Km app
off-target kinases [9] = target: off-target kinases (Homo sapiens, UniProt P10721, T670I); settings: KIT T670I (mutant), ZLYTE, ATP Km app

Sequence of off-target kinases (Homo sapiens, UniProt Q9UKE5) (Q9UKE5 whole entry): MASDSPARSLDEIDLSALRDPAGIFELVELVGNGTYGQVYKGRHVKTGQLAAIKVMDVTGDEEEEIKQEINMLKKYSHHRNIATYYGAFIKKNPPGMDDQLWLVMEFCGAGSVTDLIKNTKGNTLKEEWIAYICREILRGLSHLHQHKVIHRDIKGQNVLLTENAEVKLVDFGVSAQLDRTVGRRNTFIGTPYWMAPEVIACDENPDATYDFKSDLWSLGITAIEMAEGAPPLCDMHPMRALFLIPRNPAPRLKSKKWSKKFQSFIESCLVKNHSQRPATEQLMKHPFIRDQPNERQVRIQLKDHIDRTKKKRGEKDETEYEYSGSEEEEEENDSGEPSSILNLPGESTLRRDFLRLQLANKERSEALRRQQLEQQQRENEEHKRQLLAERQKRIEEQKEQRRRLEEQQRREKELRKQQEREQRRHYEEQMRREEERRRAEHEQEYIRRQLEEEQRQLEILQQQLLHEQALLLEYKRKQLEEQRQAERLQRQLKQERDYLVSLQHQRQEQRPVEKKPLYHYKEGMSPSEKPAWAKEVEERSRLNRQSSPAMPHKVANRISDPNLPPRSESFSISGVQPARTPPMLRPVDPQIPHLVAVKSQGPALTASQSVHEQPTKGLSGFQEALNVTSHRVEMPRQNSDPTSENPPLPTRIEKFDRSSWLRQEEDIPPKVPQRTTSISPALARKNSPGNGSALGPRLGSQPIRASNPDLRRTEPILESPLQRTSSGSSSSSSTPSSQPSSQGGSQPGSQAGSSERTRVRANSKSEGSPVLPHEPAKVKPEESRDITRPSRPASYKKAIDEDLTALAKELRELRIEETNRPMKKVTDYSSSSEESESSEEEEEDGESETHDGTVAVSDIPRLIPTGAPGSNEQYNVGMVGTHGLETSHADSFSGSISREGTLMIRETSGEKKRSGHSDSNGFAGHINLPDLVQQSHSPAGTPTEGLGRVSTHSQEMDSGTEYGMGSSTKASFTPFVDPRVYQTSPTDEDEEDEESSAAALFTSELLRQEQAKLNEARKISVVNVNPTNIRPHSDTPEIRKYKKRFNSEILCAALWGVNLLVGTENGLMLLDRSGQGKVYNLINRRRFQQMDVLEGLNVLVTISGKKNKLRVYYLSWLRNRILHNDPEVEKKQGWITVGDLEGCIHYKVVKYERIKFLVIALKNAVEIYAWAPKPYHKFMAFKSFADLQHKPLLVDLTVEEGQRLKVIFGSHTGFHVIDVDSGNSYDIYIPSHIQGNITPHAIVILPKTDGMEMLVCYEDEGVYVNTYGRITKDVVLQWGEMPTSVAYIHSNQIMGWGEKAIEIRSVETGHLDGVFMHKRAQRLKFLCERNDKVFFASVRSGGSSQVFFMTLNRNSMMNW
Sequence of off-target kinases (Homo sapiens, UniProt P22607, K650M) (P22607 23-806 K650M): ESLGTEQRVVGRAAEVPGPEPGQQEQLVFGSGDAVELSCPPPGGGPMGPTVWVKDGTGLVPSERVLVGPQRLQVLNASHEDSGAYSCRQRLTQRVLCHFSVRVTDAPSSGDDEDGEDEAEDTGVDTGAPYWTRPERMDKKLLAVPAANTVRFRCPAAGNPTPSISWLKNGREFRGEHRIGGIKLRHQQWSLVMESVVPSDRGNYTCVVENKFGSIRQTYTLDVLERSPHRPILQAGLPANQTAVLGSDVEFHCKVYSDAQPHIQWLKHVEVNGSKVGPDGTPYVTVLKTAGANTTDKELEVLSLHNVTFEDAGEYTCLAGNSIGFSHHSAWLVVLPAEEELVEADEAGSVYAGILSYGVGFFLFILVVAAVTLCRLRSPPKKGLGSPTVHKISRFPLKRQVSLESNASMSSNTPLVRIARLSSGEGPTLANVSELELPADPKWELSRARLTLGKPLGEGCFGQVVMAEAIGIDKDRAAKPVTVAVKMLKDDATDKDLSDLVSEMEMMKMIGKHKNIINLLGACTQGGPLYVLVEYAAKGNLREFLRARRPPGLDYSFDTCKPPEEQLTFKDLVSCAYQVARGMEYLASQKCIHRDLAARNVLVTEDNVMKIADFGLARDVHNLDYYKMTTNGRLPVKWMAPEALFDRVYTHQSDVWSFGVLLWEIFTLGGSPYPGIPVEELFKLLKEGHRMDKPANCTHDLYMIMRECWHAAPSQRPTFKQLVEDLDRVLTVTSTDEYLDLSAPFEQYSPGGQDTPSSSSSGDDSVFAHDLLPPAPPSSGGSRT
Sequence of off-target kinases (Homo sapiens, UniProt P34947) (P34947 whole entry): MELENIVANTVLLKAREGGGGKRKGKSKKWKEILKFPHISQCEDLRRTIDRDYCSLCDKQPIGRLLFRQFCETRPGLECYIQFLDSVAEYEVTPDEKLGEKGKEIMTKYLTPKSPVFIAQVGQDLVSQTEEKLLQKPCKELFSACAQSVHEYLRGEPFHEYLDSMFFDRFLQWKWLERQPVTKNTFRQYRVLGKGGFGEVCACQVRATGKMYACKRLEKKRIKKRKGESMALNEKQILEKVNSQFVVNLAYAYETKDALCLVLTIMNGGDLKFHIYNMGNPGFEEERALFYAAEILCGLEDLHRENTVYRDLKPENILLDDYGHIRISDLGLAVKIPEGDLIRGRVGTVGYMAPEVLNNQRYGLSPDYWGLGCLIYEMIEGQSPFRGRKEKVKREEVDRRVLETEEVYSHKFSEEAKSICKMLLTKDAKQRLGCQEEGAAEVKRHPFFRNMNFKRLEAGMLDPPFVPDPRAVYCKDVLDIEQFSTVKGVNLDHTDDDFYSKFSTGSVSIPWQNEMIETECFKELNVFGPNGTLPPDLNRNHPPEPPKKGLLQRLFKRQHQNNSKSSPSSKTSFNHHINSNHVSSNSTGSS
Sequence of off-target kinases (Homo sapiens, UniProt P07949) (P07949 29-1114): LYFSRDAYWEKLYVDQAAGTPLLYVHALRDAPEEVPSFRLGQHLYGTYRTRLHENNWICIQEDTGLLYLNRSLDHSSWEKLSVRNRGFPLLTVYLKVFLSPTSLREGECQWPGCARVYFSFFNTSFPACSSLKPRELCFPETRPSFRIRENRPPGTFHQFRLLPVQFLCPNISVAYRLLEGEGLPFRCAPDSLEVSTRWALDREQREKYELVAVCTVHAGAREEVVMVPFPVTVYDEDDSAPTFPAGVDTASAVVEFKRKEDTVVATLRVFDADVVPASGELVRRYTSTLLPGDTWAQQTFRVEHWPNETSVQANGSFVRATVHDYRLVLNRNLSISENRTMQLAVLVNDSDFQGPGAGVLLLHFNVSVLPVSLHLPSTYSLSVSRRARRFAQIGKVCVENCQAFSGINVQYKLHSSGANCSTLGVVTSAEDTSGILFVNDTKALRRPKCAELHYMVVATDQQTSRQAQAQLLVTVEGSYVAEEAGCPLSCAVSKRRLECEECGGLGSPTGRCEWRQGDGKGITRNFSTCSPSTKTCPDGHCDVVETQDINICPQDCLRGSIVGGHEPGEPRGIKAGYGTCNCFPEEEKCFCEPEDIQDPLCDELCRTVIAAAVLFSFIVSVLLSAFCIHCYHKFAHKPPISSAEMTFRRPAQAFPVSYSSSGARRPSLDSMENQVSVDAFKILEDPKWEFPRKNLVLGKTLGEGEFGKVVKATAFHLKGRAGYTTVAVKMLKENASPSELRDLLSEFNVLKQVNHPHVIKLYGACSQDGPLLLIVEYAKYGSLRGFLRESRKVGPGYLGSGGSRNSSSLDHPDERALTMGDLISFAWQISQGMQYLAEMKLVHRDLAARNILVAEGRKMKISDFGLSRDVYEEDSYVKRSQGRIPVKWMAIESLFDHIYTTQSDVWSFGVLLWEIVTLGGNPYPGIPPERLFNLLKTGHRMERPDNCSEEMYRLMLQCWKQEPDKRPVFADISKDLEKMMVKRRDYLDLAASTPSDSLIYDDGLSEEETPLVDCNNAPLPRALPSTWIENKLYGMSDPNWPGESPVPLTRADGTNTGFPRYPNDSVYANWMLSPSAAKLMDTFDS
Sequence of off-target kinases (Homo sapiens, UniProt P00533, L861Q) (P00533 25-1210 L861Q): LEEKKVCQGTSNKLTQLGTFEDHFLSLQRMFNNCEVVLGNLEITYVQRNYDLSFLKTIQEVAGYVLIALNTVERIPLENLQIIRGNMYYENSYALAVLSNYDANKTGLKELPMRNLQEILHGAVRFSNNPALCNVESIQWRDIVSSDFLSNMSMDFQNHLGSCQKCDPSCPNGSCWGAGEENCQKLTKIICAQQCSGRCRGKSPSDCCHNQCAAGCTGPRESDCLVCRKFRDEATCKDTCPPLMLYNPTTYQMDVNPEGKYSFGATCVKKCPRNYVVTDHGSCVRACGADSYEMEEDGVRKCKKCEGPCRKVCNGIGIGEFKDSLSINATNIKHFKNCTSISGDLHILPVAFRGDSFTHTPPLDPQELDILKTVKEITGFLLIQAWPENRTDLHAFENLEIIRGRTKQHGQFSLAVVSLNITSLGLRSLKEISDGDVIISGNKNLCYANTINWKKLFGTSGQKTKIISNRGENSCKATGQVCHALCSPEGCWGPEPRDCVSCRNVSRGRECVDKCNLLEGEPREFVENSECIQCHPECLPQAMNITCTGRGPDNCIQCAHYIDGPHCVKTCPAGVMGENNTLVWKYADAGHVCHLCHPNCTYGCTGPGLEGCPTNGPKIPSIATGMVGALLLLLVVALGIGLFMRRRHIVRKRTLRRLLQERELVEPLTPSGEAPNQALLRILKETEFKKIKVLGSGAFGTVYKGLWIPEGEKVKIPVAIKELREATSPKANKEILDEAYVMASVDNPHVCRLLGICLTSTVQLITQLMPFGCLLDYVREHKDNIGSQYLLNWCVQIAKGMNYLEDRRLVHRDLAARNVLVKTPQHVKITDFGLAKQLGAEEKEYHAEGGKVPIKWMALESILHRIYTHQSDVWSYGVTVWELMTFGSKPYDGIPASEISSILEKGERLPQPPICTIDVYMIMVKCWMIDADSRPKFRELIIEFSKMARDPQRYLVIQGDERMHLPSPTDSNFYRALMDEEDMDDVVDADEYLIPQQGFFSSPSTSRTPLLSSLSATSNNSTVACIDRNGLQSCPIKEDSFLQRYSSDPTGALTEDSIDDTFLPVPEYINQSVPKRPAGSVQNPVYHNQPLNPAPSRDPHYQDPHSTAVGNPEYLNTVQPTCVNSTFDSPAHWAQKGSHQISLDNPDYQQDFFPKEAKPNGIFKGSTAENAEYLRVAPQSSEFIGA

Compound: N#Cc1cc(-c2ncnc(Nc3ccc(N4CCN(C5COC5)CC4)cc3)n2)ccc1OC1CCOCC1 [Compound 1, 5-(4-((4-(4-(oxetan-3-yl)piperazin-1-yl)phenyl)amino)-1,3,5-triazin-2-yl)-2-((tetrahydro-2H-pyran-4-yl)oxy)benzonitrile]
- inhibition (off-target kinases [1]; read-out: % Inhibition 1): 12%
- inhibition (off-target kinases [1]; read-out: % Inhibition 2): 9%
- inhibition (off-target kinases [1]; read-out: % Inhibition Avg): 11%
- inhibition (off-target kinases [2]; LanthaScreen Binding, read-out: % Inhibition 1): 5%
- inhibition (off-target kinases [2]; LanthaScreen Binding, read-out: % Inhibition 2): 5%
- inhibition (off-target kinases [2]; LanthaScreen Binding, read-out: % Inhibition Avg): 5%
- inhibition (off-target kinases [2]; ZLYTE, ATP 100, read-out: % Inhibition 1): 13%
- inhibition (off-target kinases [2]; ZLYTE, ATP 100, read-out: % Inhibition 2): 2%
- inhibition (off-target kinases [2]; ZLYTE, ATP 100, read-out: % Inhibition Avg): 8%
- inhibition (off-target kinases [3]; read-out: % Inhibition 1): 46%
- inhibition (off-target kinases [3]; read-out: % Inhibition 2): 42%
- inhibition (off-target kinases [3]; read-out: % Inhibition Avg): 44%
- inhibition (off-target kinases [4]; read-out: % Inhibition 1): 3%
- inhibition (off-target kinases [4]; read-out: % Inhibition 2): 4%
- inhibition (off-target kinases [4]; read-out: % Inhibition Avg): 3%
- inhibition (off-target kinases [5]; read-out: % Inhibition 1): 6%
- inhibition (off-target kinases [5]; read-out: % Inhibition 2): 5%
- inhibition (off-target kinases [5]; read-out: % Inhibition Avg): 5%
- inhibition (off-target kinases [6]; read-out: % Inhibition 1): 46%
- inhibition (off-target kinases [6]; read-out: % Inhibition 2): 43%
- inhibition (off-target kinases [6]; read-out: % Inhibition Avg): 45%
- inhibition (off-target kinases [7]; read-out: % Inhibition 1): 33%
- inhibition (off-target kinases [7]; read-out: % Inhibition 2): 38%
- inhibition (off-target kinases [7]; read-out: % Inhibition Avg): 35%
- inhibition (off-target kinases [8]; read-out: % Inhibition 1): 5%
- inhibition (off-target kinases [8]; read-out: % Inhibition 2): -10%
- inhibition (off-target kinases [8]; read-out: % Inhibition Avg): -3%
- inhibition (off-target kinases [9]; read-out: % Inhibition 1): 6%
- inhibition (off-target kinases [9]; read-out: % Inhibition 2): 7%
- inhibition (off-target kinases [9]; read-out: % Inhibition Avg): 6%
